Experiment [1] concerns the target Cyclin-dependent kinase 16 (Homo sapiens) (UniProt Q00536). Briefly: PCTK1 SGC Tm panel (DSF). Particulars: for ΔTm: Compound concentration 10.0 uM.
Experiment [2] deals with Cyclin-dependent kinase-like 1 (Homo sapiens) (UniProt Q00532). Briefly: CDKL1 SGC Tm panel (DSF). Particulars: for ΔTm: Compound concentration 10.0 uM.
In experiment [3] the target is T1, Phosphorylase b kinase gamma catalytic chain, liver/testis isoform (Homo sapiens) (UniProt P15735).
T1 sequence (whole entry): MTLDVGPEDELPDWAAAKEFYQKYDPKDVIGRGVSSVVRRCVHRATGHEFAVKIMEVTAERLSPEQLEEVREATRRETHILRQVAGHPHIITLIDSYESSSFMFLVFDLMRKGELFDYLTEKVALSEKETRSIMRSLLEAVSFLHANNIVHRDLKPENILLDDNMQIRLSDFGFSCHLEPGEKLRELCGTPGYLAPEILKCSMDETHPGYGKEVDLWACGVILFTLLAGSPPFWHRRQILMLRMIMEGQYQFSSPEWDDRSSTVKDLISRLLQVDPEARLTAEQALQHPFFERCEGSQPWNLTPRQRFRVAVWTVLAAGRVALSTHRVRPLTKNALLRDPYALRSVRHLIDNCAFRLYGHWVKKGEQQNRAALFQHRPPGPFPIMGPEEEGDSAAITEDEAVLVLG
The experiment in a line: PHKG2 SGC Tm panel (DSF). To be noted: for ΔTm: Compound concentration 10.0 uM.

For experiment [4], the target named is T2, Cyclin-G-associated kinase (Homo sapiens) (UniProt O14976).
T2 sequence (whole entry): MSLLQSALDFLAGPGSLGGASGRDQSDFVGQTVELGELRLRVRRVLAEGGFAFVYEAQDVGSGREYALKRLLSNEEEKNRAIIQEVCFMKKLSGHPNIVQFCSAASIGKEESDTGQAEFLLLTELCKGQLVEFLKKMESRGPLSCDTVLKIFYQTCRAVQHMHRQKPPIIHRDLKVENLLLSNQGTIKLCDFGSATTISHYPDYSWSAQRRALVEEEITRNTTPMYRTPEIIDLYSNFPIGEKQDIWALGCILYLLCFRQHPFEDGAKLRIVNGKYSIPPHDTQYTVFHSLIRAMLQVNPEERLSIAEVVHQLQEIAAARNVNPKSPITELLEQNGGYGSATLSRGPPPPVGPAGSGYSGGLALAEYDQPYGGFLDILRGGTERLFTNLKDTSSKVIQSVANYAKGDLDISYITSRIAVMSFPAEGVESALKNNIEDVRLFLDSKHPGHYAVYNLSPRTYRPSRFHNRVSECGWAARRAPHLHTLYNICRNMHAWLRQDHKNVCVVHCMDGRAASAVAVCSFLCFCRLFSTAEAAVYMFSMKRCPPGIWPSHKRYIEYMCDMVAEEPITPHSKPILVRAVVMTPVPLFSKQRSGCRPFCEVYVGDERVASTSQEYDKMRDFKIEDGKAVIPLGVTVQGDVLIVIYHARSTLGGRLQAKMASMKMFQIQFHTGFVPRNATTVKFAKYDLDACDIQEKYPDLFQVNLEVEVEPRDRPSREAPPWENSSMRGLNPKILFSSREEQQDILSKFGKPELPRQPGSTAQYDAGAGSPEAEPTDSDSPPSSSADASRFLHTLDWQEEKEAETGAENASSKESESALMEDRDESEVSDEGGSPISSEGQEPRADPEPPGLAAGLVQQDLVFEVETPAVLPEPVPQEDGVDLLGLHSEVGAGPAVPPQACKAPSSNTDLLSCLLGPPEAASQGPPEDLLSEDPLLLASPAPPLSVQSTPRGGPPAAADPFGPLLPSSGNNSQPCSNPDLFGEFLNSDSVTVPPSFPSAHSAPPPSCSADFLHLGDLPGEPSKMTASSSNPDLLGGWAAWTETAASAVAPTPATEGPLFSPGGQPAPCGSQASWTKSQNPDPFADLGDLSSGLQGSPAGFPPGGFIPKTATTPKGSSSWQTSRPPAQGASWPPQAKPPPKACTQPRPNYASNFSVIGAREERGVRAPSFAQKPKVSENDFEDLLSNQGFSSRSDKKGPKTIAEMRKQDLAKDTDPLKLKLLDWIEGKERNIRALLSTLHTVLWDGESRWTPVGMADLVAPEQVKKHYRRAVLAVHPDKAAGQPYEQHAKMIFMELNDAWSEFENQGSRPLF
The experiment in a line: GAK SGC Tm panel (DSF). To be noted: for ΔTm: Compound concentration 10.0 uM.

Experiment [5] addresses Serine/threonine-protein kinase MRCK alpha (Homo sapiens) (UniProt Q5VT25). Briefly: CDC42BPA SGC Tm panel (DSF). Particulars: for ΔTm: Compound concentration 10.0 uM.
Experiment [6] deals with T3, Serine/threonine-protein kinase 3 (Homo sapiens) (UniProt Q13188).
T3 sequence (whole entry): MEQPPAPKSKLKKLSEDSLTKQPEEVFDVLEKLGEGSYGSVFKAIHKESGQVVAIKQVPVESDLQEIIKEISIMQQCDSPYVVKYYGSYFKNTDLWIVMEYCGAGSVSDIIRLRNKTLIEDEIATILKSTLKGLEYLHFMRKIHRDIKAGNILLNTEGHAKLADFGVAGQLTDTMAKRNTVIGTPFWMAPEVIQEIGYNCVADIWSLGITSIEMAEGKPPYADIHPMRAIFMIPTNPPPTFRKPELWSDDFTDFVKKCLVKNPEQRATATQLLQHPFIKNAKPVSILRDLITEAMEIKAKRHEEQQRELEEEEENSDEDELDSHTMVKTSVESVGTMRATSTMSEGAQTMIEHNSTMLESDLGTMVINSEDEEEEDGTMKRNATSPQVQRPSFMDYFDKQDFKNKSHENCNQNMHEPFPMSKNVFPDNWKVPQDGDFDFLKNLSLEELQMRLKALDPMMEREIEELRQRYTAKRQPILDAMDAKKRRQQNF
Briefly: STK3 SGC Tm panel (DSF). Particulars: for ΔTm: Compound concentration 10.0 uM.

The target of experiment [7] is Mu-type opioid receptor (Homo sapiens, UniProt P35372). To be noted: Compound concentration 10.0 uM.
Chain of Mu-type opioid receptor (P35372 whole entry): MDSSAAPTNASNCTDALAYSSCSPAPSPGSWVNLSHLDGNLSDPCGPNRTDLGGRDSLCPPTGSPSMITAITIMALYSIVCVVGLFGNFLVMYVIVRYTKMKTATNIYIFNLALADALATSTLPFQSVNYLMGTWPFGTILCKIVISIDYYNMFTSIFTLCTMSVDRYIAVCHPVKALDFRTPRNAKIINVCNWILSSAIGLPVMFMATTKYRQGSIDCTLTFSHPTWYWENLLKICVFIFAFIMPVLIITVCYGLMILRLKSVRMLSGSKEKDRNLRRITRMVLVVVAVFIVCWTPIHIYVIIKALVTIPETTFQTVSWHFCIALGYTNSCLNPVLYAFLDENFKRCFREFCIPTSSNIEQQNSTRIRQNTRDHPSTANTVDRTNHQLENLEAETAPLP
Experiment [8] concerns the target T4, Serine/threonine-protein kinase 17A (Homo sapiens) (UniProt Q9UEE5).
T4 sequence (whole entry): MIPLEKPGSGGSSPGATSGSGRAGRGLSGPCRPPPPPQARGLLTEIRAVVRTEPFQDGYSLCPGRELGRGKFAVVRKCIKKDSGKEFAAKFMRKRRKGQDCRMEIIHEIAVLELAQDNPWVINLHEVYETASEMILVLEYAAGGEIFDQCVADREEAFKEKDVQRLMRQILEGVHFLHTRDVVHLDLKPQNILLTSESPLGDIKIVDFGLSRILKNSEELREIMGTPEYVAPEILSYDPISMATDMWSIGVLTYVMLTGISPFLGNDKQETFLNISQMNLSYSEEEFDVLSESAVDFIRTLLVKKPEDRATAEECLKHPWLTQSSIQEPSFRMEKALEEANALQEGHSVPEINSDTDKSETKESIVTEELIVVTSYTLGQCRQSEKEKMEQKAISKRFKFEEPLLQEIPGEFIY
Briefly: STK17A SGC Tm panel (DSF). Particulars: for ΔTm: Compound concentration 10.0 uM.

Chain of Cyclin-dependent kinase 16 (Homo sapiens) (Q00536 whole entry): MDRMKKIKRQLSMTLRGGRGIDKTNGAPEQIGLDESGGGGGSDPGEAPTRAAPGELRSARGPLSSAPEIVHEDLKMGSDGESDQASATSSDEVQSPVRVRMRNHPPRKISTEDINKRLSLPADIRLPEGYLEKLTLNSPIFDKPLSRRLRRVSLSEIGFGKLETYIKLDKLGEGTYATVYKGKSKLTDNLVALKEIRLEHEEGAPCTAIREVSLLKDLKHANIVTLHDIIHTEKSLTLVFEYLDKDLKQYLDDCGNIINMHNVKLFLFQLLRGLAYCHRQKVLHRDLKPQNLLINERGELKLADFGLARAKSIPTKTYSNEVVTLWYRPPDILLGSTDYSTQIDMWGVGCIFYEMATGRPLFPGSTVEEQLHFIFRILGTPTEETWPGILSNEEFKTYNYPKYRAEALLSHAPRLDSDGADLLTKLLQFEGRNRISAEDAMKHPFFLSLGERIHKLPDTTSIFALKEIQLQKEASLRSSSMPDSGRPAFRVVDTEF
Chain of Serine/threonine-protein kinase MRCK alpha (Homo sapiens) (Q5VT25 whole entry, looked up): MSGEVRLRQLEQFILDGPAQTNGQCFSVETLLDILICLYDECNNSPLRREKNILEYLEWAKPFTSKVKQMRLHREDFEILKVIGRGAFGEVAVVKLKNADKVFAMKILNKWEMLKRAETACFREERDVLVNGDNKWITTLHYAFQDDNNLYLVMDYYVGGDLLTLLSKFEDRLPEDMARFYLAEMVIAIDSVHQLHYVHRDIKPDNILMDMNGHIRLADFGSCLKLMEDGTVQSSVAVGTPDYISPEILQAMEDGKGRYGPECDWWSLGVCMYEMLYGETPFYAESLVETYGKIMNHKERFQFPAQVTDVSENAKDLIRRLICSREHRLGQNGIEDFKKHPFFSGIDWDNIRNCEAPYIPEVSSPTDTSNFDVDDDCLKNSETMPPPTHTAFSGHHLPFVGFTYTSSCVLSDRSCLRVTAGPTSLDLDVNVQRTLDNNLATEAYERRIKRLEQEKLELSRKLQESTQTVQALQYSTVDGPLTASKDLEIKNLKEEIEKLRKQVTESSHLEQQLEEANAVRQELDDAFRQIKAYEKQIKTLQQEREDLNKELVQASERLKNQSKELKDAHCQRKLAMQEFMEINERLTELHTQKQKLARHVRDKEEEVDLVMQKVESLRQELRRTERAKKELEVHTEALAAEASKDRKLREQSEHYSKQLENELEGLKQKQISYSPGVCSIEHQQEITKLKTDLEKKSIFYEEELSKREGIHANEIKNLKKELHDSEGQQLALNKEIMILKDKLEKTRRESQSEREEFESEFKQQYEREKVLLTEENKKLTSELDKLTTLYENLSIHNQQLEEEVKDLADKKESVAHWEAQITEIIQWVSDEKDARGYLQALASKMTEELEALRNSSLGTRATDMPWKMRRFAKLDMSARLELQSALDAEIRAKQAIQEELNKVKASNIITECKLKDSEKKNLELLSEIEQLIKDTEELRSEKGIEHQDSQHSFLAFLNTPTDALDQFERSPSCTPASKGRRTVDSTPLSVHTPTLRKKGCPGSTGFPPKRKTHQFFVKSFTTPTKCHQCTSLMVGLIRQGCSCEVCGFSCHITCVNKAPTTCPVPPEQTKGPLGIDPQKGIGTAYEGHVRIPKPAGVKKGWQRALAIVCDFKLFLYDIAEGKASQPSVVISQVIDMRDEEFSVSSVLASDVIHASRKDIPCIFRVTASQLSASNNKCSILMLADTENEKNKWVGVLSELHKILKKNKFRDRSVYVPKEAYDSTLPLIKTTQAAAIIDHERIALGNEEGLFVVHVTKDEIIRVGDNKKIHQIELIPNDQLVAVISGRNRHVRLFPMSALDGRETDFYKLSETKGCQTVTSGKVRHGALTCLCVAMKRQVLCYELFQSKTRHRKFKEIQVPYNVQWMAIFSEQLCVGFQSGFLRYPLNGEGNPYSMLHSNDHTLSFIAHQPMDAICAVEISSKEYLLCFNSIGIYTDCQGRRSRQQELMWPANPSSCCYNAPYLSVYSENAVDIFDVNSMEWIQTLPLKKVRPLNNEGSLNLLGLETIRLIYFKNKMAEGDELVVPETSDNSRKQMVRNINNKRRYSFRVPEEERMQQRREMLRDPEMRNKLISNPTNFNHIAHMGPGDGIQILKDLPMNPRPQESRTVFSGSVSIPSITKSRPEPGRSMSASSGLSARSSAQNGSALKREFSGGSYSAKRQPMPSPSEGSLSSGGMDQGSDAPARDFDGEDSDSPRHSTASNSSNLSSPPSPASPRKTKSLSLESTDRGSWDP
Chain of Cyclin-dependent kinase-like 1 (Homo sapiens) (Q00532 whole entry, canonical isoform): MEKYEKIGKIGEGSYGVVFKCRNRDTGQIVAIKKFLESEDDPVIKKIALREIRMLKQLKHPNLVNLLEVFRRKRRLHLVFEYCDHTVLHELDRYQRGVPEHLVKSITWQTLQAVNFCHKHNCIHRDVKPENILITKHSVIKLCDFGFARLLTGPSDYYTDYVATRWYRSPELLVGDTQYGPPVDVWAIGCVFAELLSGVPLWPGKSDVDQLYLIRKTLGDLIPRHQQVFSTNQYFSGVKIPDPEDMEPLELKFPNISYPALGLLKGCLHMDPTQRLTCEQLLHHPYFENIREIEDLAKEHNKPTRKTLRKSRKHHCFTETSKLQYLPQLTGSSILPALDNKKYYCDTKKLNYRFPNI

A word on the inhibition: it is the drop in the measured response relative to a control, in per cent. On to `CCC[C@@H]1CNCc2c1[nH]c(=O)c(C#N)c2N1CCC2(CC1)CC2`, for which the delta Tm Staurosporine positive control in experiment [1] was 11.2; in experiment [2], 7.07; in experiment [3], 21.5; in experiment [4], 9.89; in experiment [5] it was 3.2; in experiment [6] it was 16.5. The delta Tm Staurosporine positive control in experiment [8] was 11.8. In addition, the ΔTm in experiment [1] was -0.4; in experiment [2] it was -0.229; in experiment [3], -0.827; in experiment [4], -1.01; in experiment [5], 0.159; in experiment [6] it was -0.767. Also, in experiment [8], the ΔTm was -1.01. In addition, the inhibition in experiment [7] is 57.9%.
Take `CCC[C@H]1CNCc2c1[nH]c(=O)c(C#N)c2N1CCC2(CC1)CC2`: the delta Tm Staurosporine positive control in experiment [1] came to 11.2; in experiment [2], 7.07; in experiment [3] it was 21.5; in experiment [4], 9.89; in experiment [5] it was 3.2; in experiment [6] it was 16.5. The same compound registered a delta Tm Staurosporine positive control in experiment [8] of 11.8. For the same compound, the ΔTm in experiment [1] is -0.418; in experiment [2], -0.0258; in experiment [3], -0.755; in experiment [4], -1.15; in experiment [5] it was 0.0908; in experiment [6] it was -0.737. Moreover, the ΔTm in experiment [8] was -1.05. Further, in experiment [7], the inhibition was 26.2%.

(Values after ChEMBL document CHEMBL5303765, “Data for DCP probe BAY-7081” (2023).)
